Entries after “also recorded” stand apart in the source; their conditions may differ. Where a SMILES comes first, the peptide text is derived from it. Where no end group is shown, it is not given here. The star is where a group is joined. For = O=C*

By EC50 is commonly meant the concentration giving half of the maximal effect. In general, half-life refers to the time in which the quantity being followed falls by half. High values mean slow decline, low ones rapid decline.

Data set [1] relates to differentiated HL-60 cells. The data set is classed as cell-based, human. The following applies: 72 h. The procedure: HEK-293 cells (American Type Culture Collection, Manassas, VA, USA) were maintained in DMEM (Thermo Fisher Scientific, Waltham, MA, USA) containing 10% FBS (Thermo Fisher Scientific) in a humidified atmosphere at 5% CO2 and 37 °C. Human acute leukemia-derived HL-60 cells (RIKEN Cell Bank, Ibaraki, Japan) were cultured in RPMI-1640 medium (Thermo Fisher Scientific) containing 10% FBS in a humidified atmosphere at 5% CO2 and 37 °C. HL-60 cells were treated with 500 μM dibutyryl-cAMP (Sigma-Aldrich, St. Louis, MO, USA) for 72 h to differentiate the cells into neutrophilic/granulocytic cells as described elsewhere. The ability of MCT-2-related peptides to activate HL-60 cells differentiated into neutrophilic/granulocytic cells was evaluated by stimulation of β-hexosaminidase secretion from the cells. Briefly, differentiated HL-60 cells were washed 3 times with ice-cold HEPES-buffered Hank’s solution (HBHS; 10 mM HEPES, 136.9 mM NaCl, 5.4 mM KCl, 1.2 mM CaCl2, 0.44 mM KH2PO4, 0.49 mM MgCl2, 0.41 mM MgSO4, 0.34 mM Na2HPO4, 5.5 mM glucose, 4.2 mM NaHCO3, and 0.1% BSA, pH 7.4). The cells were resuspended in HBHS at a density of 5.6 × 10^6 cells/mL, and DNase I (Sigma-Aldrich) and cytochalasin B (Sigma-Aldrich) were each added at a final concentration of 5 μg/mL. The cell suspension in each tube (5.0 × 10^5 cells/90 μL) was preincubated at 37 °C for 10 min and stimulated with 10 μL synthetic peptide solution at 37 °C for 10 min. The inhibitory effects of inhibitors against FPR1 [CysH (Sigma-Aldrich)] and FPR2 [PBP10 (Tocris Bioscience, Bristol, UK)] on β-hexosaminidase release induced by MCT-2 and its derivatives were also evaluated in the differentiated HL-60 cells; each cell suspension prepared as above (90 μL) was transferred to a tube (5.0 × 10^5 cells/tube) with 5 μL inhibitor solution for FPR1 (CysH) or FPR2 (PBP10). Each tube was then preincubated at 37 °C for 10 min and stimulated with 5 μL synthetic peptide solution at 37 °C for 10 min. After stimulation, 200 μL ice-cold reaction quenching buffer (25 mM Tris, 123 mM NaCl, and 2.7 mM KCl, pH 7.4) was added to each cell suspension to stop the reaction. Thereafter, these tubes were centrifuged at 4 °C and 2300× g for 1 min, and each supernatant was transferred into a new tube. β-Hexosaminidase activity in the supernatant was measured as described previously. Briefly, 90 μL supernatant was transferred to each well of a 96-well microtiter plate, and 60 μL of a substrate solution for β-hexosaminidase [10 mM p-nitrophenyl N-acetyl-β-D-glucosaminide (Sigma-Aldrich), 40 mM citrate, and 70 mM NaHPO4, pH 4.5] was added to initiate the enzyme reaction. After incubation of the plate at 37 °C for 1 h, 100 μL of 400 mM glycine (pH 10.7) was added to stop the reaction. The absorbance at 415 nm for the resulting p-nitrophenol and at 490 nm for the reference was measured using a microtiter plate reader (Viento XS; BioTek Instruments, Winooski, VT, USA). The ability of each peptide to induce β-hexosaminidase release was expressed as a percentage of enzyme secretion promoted by 10 μM MCT-2(1–15) that induced the maximum response for the elucidation of full or partial agonists to the activity of MCT-2(1–15) (Figure 2 and Figure 4, Table 2) or a percentage of the total enzyme activity, which was the enzyme activity released after disruption of the cells with 0.05% Triton X-100 (Figure 3).

Data set [2] can be described thus: Time-dependent alteration of molecular forms of MCT-2(1–15) in mouse serum (RP-HPLC, MALDI-TOF-MS). The data set is classed as in vitro ADME. As to conditions: 37 °C; for time of maximum amount of the degradation product in serum: RP-HPLC, MALDI-TOF-MS. The procedure: Male C57BL/6JJcl mice, 12–14 weeks of age, weighing 25–30 g, were anesthetized (50 mg/kg pentobarbital), and blood was collected from the caudal vena cava and stored overnight at 4 °C. The blood sample was centrifuged at 4 °C and 20,000× g for 20 min, and the supernatant was transferred to a new tube as mouse serum and stored at −80 °C. MCT-2(1–15) was incubated in mouse serum at a final concentration of 500 μM at 37 °C, and aliquots (100 μL) were collected from the incubation mixture after 0, 1, 2, 4, 24, and 48 h. These aliquots were mixed with TCA (final concentration: 3% w/v) and kept on ice for 30 min to precipitate denatured proteins. The samples were centrifuged at 4 °C and 13,000× g for 15 min, and the supernatants were analyzed by RP-HPLC on a C18 column (4.6 × 150 mm, Cosmosil; Nacalai Tesque, Inc.). RP-HPLC peaks that contained MCT-2(1–15) and its derivative peptides were analyzed by MALDI-TOF-MS to identify their molecular forms.

The next data set is described as follows: mouse serum. The following applies: Male C57BL/6JJcl mice, 37 °C, up to 48 h.
Where [3] appears, read: product formed from 500 μM MCT-2(1–15) in mouse serum.
Where [4] appears, read: product formed from 500 μM MCT-2(1–15) in mouse serum, 4 h.

`CC[C@H](C)[C@H](NC(=O)[C@H](CCCCN)NC(=O)[C@H](CCCNC(=N)N)NC(=O)[C@H](CCSC)NC(=O)[C@@H]1CCCN1C(=O)[C@@H](NC(=O)[C@H](CCSC)NC=O)[C@@H](C)O)C(=O)N[C@@H](CC(N)=O)C(=O)N1CCC[C@H]1C(=O)N[C@@H](CC(C)C)C(=O)O` [MCT-2(1–10)] (For-MTPMRKINPL-OH): in data set [1], the EC50 amounted to 1.8 ± 0.173 µM. For the same molecule, in data set [2] (setting [3]), the “time of first detection of the degradation product in serum” value (“time of first detection … in serum” for short) worked out at 1 h and the “time of maximum amount of the degradation product in serum” value (“time of maximum amount … in serum” for short) is 2 h. Also, in data set [2] (setting [4]), the “presence of the degradation product in serum at 4 h” value was “not found”.

Turning to For-MTPMRKINPLMKLIN, in the data set “mouse serum”, the fragment found entry is “MCT-2(1–11), 1 h; also recorded: MCT-2(1–10), 1 h; also recorded: MCT-2(1–4), 1 h”.

The molecule `CC[C@H](C)[C@H](NC(=O)[C@H](CCCCN)NC(=O)[C@H](CCCNC(=N)N)NC(=O)[C@H](CCSC)NC(=O)[C@@H]1CCCN1C(=O)[C@@H](NC(=O)[C@H](CCSC)NC=O)[C@@H](C)O)C(=O)N[C@@H](CC(N)=O)C(=O)N1CCC[C@H]1C(=O)N[C@@H](CC(C)C)C(=O)N[C@@H](CCSC)C(=O)O` [MCT-2(1–11)] (For-MTPMRKINPLM-OH) had an EC50 in data set [1] of 0.547 ± 0.0939 µM. Also, in data set [2] (setting [3]), the “time of first detection … in serum” value was determined as 1 h and the “time of maximum amount … in serum” value came to 1 h. For the same molecule, in data set [2] (setting [4]), the “presence of the degradation product in serum at 4 h” value is “not found”.

In the case of `CC[C@H](C)[C@H](NC(=O)[C@H](CC(C)C)NC(=O)[C@H](CCCCN)NC(=O)[C@H](C)NC(=O)[C@H](CC(C)C)NC(=O)[C@@H]1CCCN1C(=O)[C@H](CC(N)=O)NC(=O)[C@@H](NC(=O)[C@H](CCCCN)NC(=O)[C@H](CCCNC(=N)N)NC(=O)[C@H](CCSC)NC(=O)[C@@H]1CCCN1C(=O)[C@@H](NC(=O)[C@H](CCSC)NC=O)[C@@H](C)O)[C@@H](C)CC)C(=O)N[C@@H](CC(N)=O)C(=O)O` [[Ala^11]MCT-2] (For-MTPMRKINPLAKLIN-OH), the midpoint of the response in data set [1], the EC50, lay at 0.0367 ± 0.011 µM.

Molecule MTPMRKINPLMKLIN [Des-N-formyl MCT-2] showed an EC50 in data set [1] of more than 1000 µM.

For the molecule `CC[C@H](C)[C@H](NC(=O)[C@H](CC(C)C)NC(=O)[C@H](CCCCN)NC(=O)[C@H](CCSC)NC(=O)[C@H](CC(C)C)NC(=O)[C@@H]1CCCN1C(=O)[C@H](CC(N)=O)NC(=O)[C@@H](NC(=O)[C@H](CCCCN)NC(=O)[C@H](CCCNC(=N)N)NC(=O)[C@H](CCSC)NC(=O)[C@@H]1CCCN1C(=O)[C@@H](NC(=O)[C@H](CCSC)NC=O)[C@@H](C)O)[C@@H](C)CC)C(=O)N[C@@H](CC(N)=O)C(=O)O` [MCT-2(1–15), Mitocryptide-2] (For-MTPMRKINPLMKLIN-OH), the EC50 in data set [1] came to 0.02 ± 0.00339 µM. For the same molecule, the metabolised at 1 h, 500 μM in data set [2] (male, C57BL/6JJcl, mouse serum, 500 μM peptide, 1 h, TCA precipitation, RP-HPLC (214 nm), read-out: reduction of amount of peptide in serum at 1 h) is approximately 50%. In addition, the metabolised at 2 h, 500 μM in data set [2] (male, C57BL/6JJcl, mouse serum, 500 μM peptide, 2 h, TCA precipitation, RP-HPLC (214 nm), read-out: reduction of amount of peptide in serum at 2 h) is approximately 80%. In data set [2] (male, C57BL/6JJcl, mouse serum, 500 μM peptide, RP-HPLC (214 nm)), this molecule gave a half-life at 500 μM of approximately 1 h. In addition, the “peptide remaining in serum at 4 h” value in data set [2] (mouse serum, 500 μM peptide, 4 h, RP-HPLC (214 nm)) was “completely disappeared”.

On to `CSCC[C@H](NC=O)C(=O)N[C@H](C(=O)N1CCC[C@H]1C(=O)N[C@@H](CCSC)C(=O)N[C@@H](CCCNC(=N)N)C(=O)O)[C@@H](C)O` [MCT-2(1–5)] (For-MTPMR-OH), for which the EC50 in data set [1] was 26 µM.

Consider `CC[C@H](C)[C@H](NC(=O)[C@H](CCCCN)NC(=O)[C@H](CCCNC(=N)N)NC(=O)[C@H](CCSC)NC(=O)[C@@H]1CCCN1C(=O)[C@@H](NC(=O)[C@H](CCSC)NC=O)[C@@H](C)O)C(=O)N[C@@H](CC(N)=O)C(=O)N1CCC[C@H]1C(=O)O` [MCT-2(1–9)] (For-MTPMRKINP-OH), for which the EC50 in data set [1] was 10.8 µM.

Consider `CC[C@H](C)[C@H](NC(=O)[C@H](CCCCN)NC(=O)[C@H](CCCNC(=N)N)NC(=O)[C@H](CCSC)NC(=O)[C@@H]1CCCN1C(=O)[C@@H](NC(=O)[C@H](CCSC)NC=O)[C@@H](C)O)C(=O)N[C@@H](CC(N)=O)C(=O)N1CCC[C@H]1C(=O)N[C@@H](CC(C)C)C(=O)N[C@@H](CCSC)C(=O)N[C@@H](CCCCN)C(=O)O` [MCT-2(1–12)] (For-MTPMRKINPLMK-OH), for which a half-maximal effect in data set [1] (EC50) was put at 0.633 ± 0.153 µM.

Regarding `CSCC[C@H](NC(=O)[C@@H]1CCCN1C(=O)[C@@H](NC(=O)[C@H](CCSC)NC=O)[C@@H](C)O)C(=O)O` [MCT-2(1–4)] (For-MTPM-OH), the EC50 in data set [1] worked out at 18 µM. Besides, in data set [2] (setting [3]), the “time of first detection … in serum” value is 1 h, the “time the degradation product was present in serum” value is “more than 48 h” and the “time of maximum amount … in serum” value turned out to be 4 h. For the same molecule, the “presence of the degradation product in serum at 48 h” value in data set [2] (product formed from 500 μM MCT-2(1–15) in mouse serum, 48 h) is reported as “still present”.

In data set [1], `CC[C@H](C)[C@H](NC(=O)[C@H](CC(C)C)NC(=O)[C@H](CCCCN)NC(=O)[C@H](CCSC)NC(=O)[C@H](CC(C)C)NC(=O)[C@@H]1CCCN1C(=O)[C@H](CC(N)=O)NC(=O)[C@@H](NC(=O)[C@H](CCCCN)NC(=O)[C@H](CCCNC(=N)N)NC(=O)[C@H](C)NC(=O)[C@@H]1CCCN1C(=O)[C@@H](NC(=O)[C@H](CCSC)NC=O)[C@@H](C)O)[C@@H](C)CC)C(=O)N[C@@H](CC(N)=O)C(=O)O` [[Ala^4]MCT-2] (For-MTPARKINPLMKLIN-OH) registered an EC50 of 0.068 ± 0.00265 µM.

`CC[C@H](C)[C@H](NC(=O)[C@H](CC(C)C)NC(=O)[C@H](CCCCN)NC(=O)[C@H](CCSC)NC(=O)[C@H](CC(C)C)NC(=O)[C@@H]1CCCN1C(=O)[C@H](CC(N)=O)NC(=O)[C@@H](NC(=O)[C@H](CCCCN)NC(=O)[C@H](CCCNC(=N)N)NC(=O)[C@H](CCSC)NC(=O)[C@@H]1CCCN1C(=O)[C@@H](NC(=O)[C@H](CCSC)NC=O)[C@@H](C)O)[C@@H](C)CC)C(=O)O` [MCT-2(1–14)] (For-MTPMRKINPLMKLI-OH) had an EC50 in data set [1] of 0.0967 ± 0.0176 µM.

In turn, `CC[C@H](C)[C@H](NC(=O)[C@H](C)NC(=O)[C@H](CCCCN)NC(=O)[C@H](CCSC)NC(=O)[C@H](CC(C)C)NC(=O)[C@@H]1CCCN1C(=O)[C@H](CC(N)=O)NC(=O)[C@@H](NC(=O)[C@H](CCCCN)NC(=O)[C@H](CCCNC(=N)N)NC(=O)[C@H](CCSC)NC(=O)[C@@H]1CCCN1C(=O)[C@@H](NC(=O)[C@H](CCSC)NC=O)[C@@H](C)O)[C@@H](C)CC)C(=O)N[C@@H](CC(N)=O)C(=O)O` [[Ala^13]MCT-2] (For-MTPMRKINPLMKAIN-OH) came in with an EC50 in data set [1] of 0.0837 ± 0.00354 µM.

Values taken from paper PMC8071274 (International Journal of Molecular Sciences, 2021).
